Data set [1] can be described thus: Analytical ultracentrifugation (oligomeric state). It counts as physicochemical. The conditions noted are these: for AUC Ratio (observed to predicted Mw): AUC condition a: 25 mM Na Acetate, 0.15M NaCl, pH 4; for self-association from AUC ratio of observed to predicted molecular weight: monomeric peptides. Here is the method:
All analytical ultracentrifugation (AU) experiments were performed with a XL-I analytical ultracentrifuge (Beckman Coulter, Inc., Indianopolis, Ind.) at 20° C. For sedimentation velocity analysis, the samples were centrifuged at 48,000 rpm at 20° C. for 5 hours, with radial absorbance scans taken approximately every 4 minutes. g*(s) analysis was performed with the program DCDT+, version 2.2.1 (John Philo, Thousand Oaks, Calif.) or the Optima XL-I data analysis software (Beckman Coulter, Inc.). Sedimentation equilibrium experiments were conducted at three different loading concentrations and three different rotor speeds (16,000, 20,000, and 30,000). Molecular masses were calculated using the Optima XL-I data analysis software or using Heteroanalysis version 1.1.33 (from the Analytical Ultracentrifugation Facility, Biotechnology and Bioservices Center of the University of Connecticut).

Data set [2] concerns D5 IgG binding to 5-helix (recombinant gp41 mimetic). In words: D5/5-Helix Competitive Binding Assay (DCBA), peptide constructs. The conditions noted are these: for IC50: competition for D5 binding to 5-helix, FRET. The protocol:
An in vitro binding assay based on fluorescence resonance energy transfer (FRET) was performed as previously described in Caulfield et al., 2010, J Biol Chem 285:40604-40611. Briefly, the assay uses D5 IgG (see U.S. Pat. No. 7,744,887) conjugated to europium cryptate (Eu-D5) and a biotinylated derivative of the recombinant gp41 mimetic 5-helix (5H). Biotin-5H binds to a streptavidin-conjugated allophycocyanin (APC) substrate to form a 5H-SA-APC complex. Binding of Eu-D5 to 5H results in FRET from Eu to APC. When the reaction system is excited at a wavelength of 340 nm, the amount of bound Eu-D5 is measured at the emission wavelength of 665 nm, and total Eu is measured at the emission wavelength of 620 nm. Data are reported as 10000× the ratio of signal at 665 nm to signal at 620 nm. Agents that bind competitively to either component cause a decrease in the ratio value.

Data set [3] can be described thus: Circular dichroism (secondary structure, thermal stability). It counts as physicochemical. The conditions noted are these: pH 4, 20° C. A general note: CD spectra are sensitive to the conformation of chiral molecules.
The subject of data set [4] is HXB2. The data set is classed as cell-based, HIV-1. The conditions noted are these: HeLa P4R5 cells, virus HXB2; read-out: p4/2R5 IC50 HXB2. The source says:
(§1) A number of different experimental methods can be used to determine whether or not a gp41 peptide mimetic can form a stable, faithful mimetic of said internal coiled-coil. For example, an assay designed to measure the ability of the conformationally constrained gp41 peptide mimetics to inhibit infectivity of HIV particles can be performed. In one such assay, HeLa cells stably expressing human CD4 and CCR5 receptors and harboring a β-galactosidase reporter gene driven by a tat-responsive fragment of HIV-2 LTR are infected with HIV-1 of various strains in the presence of gp41 peptide mimetics at varying concentrations. After incubating said cells for a specific period of time, the cells are lysed and β-galactosidase activity is quantified.
(§2) This neutralization assay was performed as previously described in Joyce et al., 2002, J Biol Chem 277:45811-45820 with the following modifications: HeLa P4R5 cells were seeded at 1000 cells/well in a 384-well plate and infected the following day with the appropriate HIV-1 or SHIV virus at a multiplicity of infection of approximately 0.01 in the presence of serial dilutions of immune sera or fractionated IgG 48 hours post infection, and cells were lysed and β-galactosidase activity was measured using a chemiluminescent substrate (GalScreen®, Applied Biosystems™, Life Technologies Corp., Carlsbad, Calif.). For analysis of purified IgG, the data are expressed as IC50, defined as the IgG concentration resulting in 50% reduction of chemiluminescence signal. For analysis of sera, the IC50 is defined as the reciprocal serum dilution resulting in 50% reduced chemiluminescence signal.

Data set [5] deals with viral strain V570A. It counts as cell-based, HIV-1. The conditions noted are these: HeLa P4R5 cells, virus V570A; read-out: p4/2R5 IC50 V570A.
Source text: as §1, §2

In data set [6] the target is gp41 of HIV-1 virus V570A (HIV-1 isolate HXB2) (UniProt P04578). In words: cell-based or functional assay.
Data set [7] deals with gp41 of HIV-1 virus HXB2 (HIV-1 isolate HXB2) (UniProt P04578). In words: cell-based or functional assay.
For data set [8], the target named is gp41 of HIV-1 virus V570A (HIV-1 isolate HXB2, UniProt P04578 512-856). In words: cell-based or functional assay.
Data set [9] concerns the target gp41 of HIV-1 virus HXB2 (HIV-1 isolate HXB2, UniProt P04578 512-856). In words: cell-based or functional assay.
Data set [10] deals with the molecule itself. In words: analytical ultracentrifugation (ratio of observed to predicted molecular weight); self-association.
Where [11] appears, read: CD condition a: 50 mM Na Acetate, 0.15M NaCl.

No end group written: not given here.

Data on seven molecules can be found in patent US20150071954A1, “STABLE PEPTIDE MIMETICS OF THE HIV-1 GP41 PRE-HAIRPIN INTERMEDIATE” (priority 2012, published 2015).

For “Ac-QARQLLSGIVQQQNNLLRAIEAQQHALQLTVWGIKQLQARILAVERYLKDQ-NH2 (N-terminus assumed) [Peptide N51-3B]”, the “AUC Ratio (observed to predicted Mw)” value in data set [1] is given as 3.3. Moreover, the “self-association from AUC ratio of observed to predicted molecular weight” value in [1] is “strong preference for self-association”. In addition, the “effect of mutations on D5 binding in DCBA” value in [2] is “apparent negative impact”. Besides, the IC50 is above 300 nM in data set [2], 107 nM in data set [4] and 49.3 nM in [5]. In addition, the “CD % (-helix)” value in [3] (setting [11]) was 105%.
As to “Ac-QIRELISKIVEQINNILRAIEAQQHALQLTVWGIKQLQARILAVERYLKDQ-NH2 (N-terminus assumed) [Peptide N51-2B]”, in data set [1], the “AUC Ratio (observed to predicted Mw)” value was 3.6 and the “self-association from AUC ratio of observed to predicted molecular weight” value is “strong preference for self-association”. Besides, in data set [2], the “effect of mutations on D5 binding in DCBA” value was “apparent negative impact” and the IC50 is above 300 nM. Besides, the “CD % (-helix)” value in [3] (setting [11]) came to 97%. Also, the IC50 in data set [4] is 60.9 nM. Further, in data set [5], the IC50 was 33.4 nM.
Regarding D5 IgG (antibody), in [6], the p4/2R5 IC50 (nM), V570A was 61.7 nM. The p4/2R5 IC50 (nM), HXB2 in data set [7] was 179 nM.
Take “KTA(N51-3B)3: three thiol tagged monomeric N51-3B peptides ligated on trivalent bromide scaffold KTA-Br (QARQLLSGIVQQQNNLLRAIEAQQHALQLTVWGIKQLQARILAVERYLKDQ-NH2; not fully specified (N-terminus); also: trimer: three S-acetylglycolic thiol-tagged N51-3B ligated on trivalent bromide scaffold KTA-Br)”: in data set [1] (pH 7), the “AUC Observed Mw: precipitation” value is reported as “ppt (pH 7)”. Besides, the IC50 in data set [2] was 38.4 nM. For the same molecule, in data set [3] (CD condition c: 25 mM Na Acetate), the “CD % (-helix)” value is recorded as 88%.

B1: N51-3B (L′584) (peptide)
peptide: QARQLLSGIVQQQNNLLRAIEAQQHALQLTVWGIKQLQARILAVERYLKDQ
notes: Monomeric synthetic peptide
Consider B1, for which the “p4/2R5 IC50 (nM), V570A” value in data set [8] was 49.3 nM. Besides, the “p4/2R5 IC50 (nM), HXB2” value in data set [9] was 107 nM. In addition, the binding result in data set [10] is given as “binds”.

B2: KTA(N51-3B)3 (L′510) (peptide)
peptide: QARQLLSGIVQQQNNLLRAIEAQQHALQLTVWGIKQLQARILAVERYLKDQ
modifications: not fully specified (N-terminus); also: covalent trimer of three N51-3B peptides on Kemp's triacid scaffold
B2: the “p4/2R5 IC50 (nM), V570A” value in data set [8] is 29.1 nM. The “p4/2R5 IC50 (nM), HXB2” value in [9] came out at 79.4 nM.

B3: N51-2B (L′583) (peptide)
peptide: QIRELISKIVEQINNILRAIEAQQHALQLTVWGIKQLQARILAVERYLKDQ
modifications: not fully specified (C-terminus)
notes: Monomeric synthetic peptide made on Rink amide resin; Self-associates in solution
As to B3, in [8], the “p4/2R5 IC50 (nM), V570A” value came out at 33.4 nM. The “p4/2R5 IC50 (nM), HXB2” value in [9] was 60.9 nM. Moreover, in [10], the binding result is listed as “binds”.
